≈ marks a conversion by molar mass, not a printed value.
Columns and labels:
Assay type in all cases: functional
Nakaseomyces glabratus [1] = assay: Antimicrobial activity against Candida glabrata by EUCAST method
Candida parapsilosis = assay: Antimicrobial activity against Candida parapsilosis ATCC 21019 by EUCAST method; settings: Lodderomyces parapsilosis
Nakaseomyces glabratus [2] = assay: Antimicrobial activity against Candida glabrata SSI-M68190-2007 by EUCAST method

SMILES: OC(Cn1cncn1)(Cn1cncn1)c1ccc(F)cc1F [FLUCONAZOLE]
- MIC (Nakaseomyces glabratus [1]): 8 µg/mL (≈ 26.1 µM)
- MIC (Candida parapsilosis): 0.5 µg/mL (≈ 1.63 µM)
- MIC (Nakaseomyces glabratus [2]): 0.5 µg/mL (≈ 1.63 µM)
